# Test results from PubChem BioAssay AID977630 (Broad Institute, 2014).
# Inconclusive results are not listed. Active and inactive are the calls of the source.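 The calls were made as follows: active = Normal-ribosome green reporter loss at least double humanized-ribosome red reporter loss, with overall culture growth inhibition under a set limit; inconclusive = no clear call, values can overlap the other calls; inactive = the rest.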
# Tests used:
# [1] = system: E. coli humanized H38 RFP strain growth, mixed culture, 24 h; assay: growth inhibition of wild-type GFP E. coli, H38-humanized RFP comparator, dose response, H38 mutant RFP vs wild-type GFP, cherry-pick (AID 977630)
# [2] = system: E. coli wild-type GFP growth, mixed culture, 24 h; assay: as above
# [3] = E. coli mixed culture total OD600 growth, 24 h
SMILES,AC50 [1] [µM],AC50 [2],"AC50 [2, 3] [µM]"
COc1ccc(OC2C(=O)N(Cc3ccc4c(c3)OCO4)C2c2cccs2)cc1 (configuration not stated),11.5,> 100 µM (inactive),
COc1cc(NC(=O)C(c2ccccc2)c2ccccc2)c(C(=O)O)cc1OC,22.3,> 100 µM (inactive),
O=C1NC(CCc2ccccc2)C(=O)N1Cc1cccc2ccccc12 (configuration not stated),50.1,> 100 µM (inactive),51.8
COC(=O)c1nc(-c2ccc(C)cc2)[nH]c1C(C)(C)C,> 100,,
Fc1ccccc1C1CCN(Cc2nc(COc3ccccc3)no2)C1 (configuration not stated),> 100,,
Cc1ccccc1NS(=O)(=O)c1cc(C(=O)NCCC2=CCCCC2)ccc1C,> 100,,> 100
Cc1ccccc1-c1nc(CS(=O)(=O)CC(=O)N2CCCCC2)c(C)o1,> 100,,45.5
CN(c1ccc(C(=O)NCc2cccs2)cc1)S(=O)(=O)c1ccccc1,> 100,,
COc1ccc(NS(=O)(=O)c2ccc(Cl)c(NC(=O)c3ccccc3F)c2)cc1,> 100,> 100 µM (inactive),
Nc1nc(=S)ss1,< 0.6,> 100 µM (inactive),> 100
O=C(Nc1ccccc1N1CCOCC1)C1CCCCN1S(=O)(=O)c1ccccc1 (configuration not stated),49.8,,> 100
CCn1cc(Br)c(C(=O)Nc2ccc(C(=O)OC(C)C)cc2)n1,52,> 100 µM (inactive),47.3
CCOC(=O)[C@]12Cc3ccccc3[C@H]1N(C)C(=O)c1cc(OC)ccc12,48.7,> 100 µM (inactive),34.2
COc1cccc(NC(=O)C2CCC(CNS(=O)(=O)c3cccc4cccnc34)CC2)c1 (configuration not stated),> 100,,
CSc1nnnn1-c1ccc(Cl)cc1,> 100,,
CC(C)C[C@H]1COc2cc(Br)ccc2S(=O)(=O)N1,47,> 100 µM (inactive),
COc1ccc(-c2cc(C(=O)O)nc3ccc4ccccc4c23)cc1OC,> 100,,
Cc1cc(SCC(=O)OCC(=O)NCC2CCCO2)c(C)cc1Br (configuration not stated),> 100,> 100 µM (inactive),
CCOC(=O)c1csc(NC(=O)CC2CCCC2)n1,51.7,> 100 µM (inactive),
O=C1c2ccccc2NC(c2ccc(-c3cccc([N+](=O)[O-])c3)o2)N1O (configuration not stated),7.43,> 100 µM (inactive),
Cc1ccc([N+](=O)[O-])c(OCCn2cnc3ccccc32)c1,> 100,,
Nc1ncncc1-c1ccc2ccccc2c1,> 100,> 100 µM (inactive),
COc1cc(NC(=O)c2ccc(Cl)cc2)c(OC)cc1NC(=O)CN1CCCCC1,> 100,> 100 µM (inactive),> 100
COc1cc(OC)cc(C(=O)N[C@H](C(=O)OCC(=O)Nc2ccc(F)c(F)c2F)C(C)C)c1,> 100,> 100 µM (inactive),
CS(=O)(=O)c1ccc(Cl)c(NC(=O)COC(=O)c2c(Cl)cccc2Cl)c1,> 100,> 100 µM (inactive),> 100
CC(C)(C)c1ccc(S(=O)(=O)NCc2ccc(C(=O)NCc3ccccn3)cc2)cc1,49.9,> 100 µM (inactive),> 100
COc1ccc(-c2nn(-c3ccccc3C)cc2CNCc2cccnc2)cc1F,> 100,,> 100

SMILES,AC50 [1] [µM],AC50 [2],"AC50 [2, 3] [µM]"
CCc1cc2ccc(OC)cc2nc1SCC(=O)N1CCN(C(=O)c2ccco2)CC1,> 100,> 100 µM (inactive),
CC(C)(C)S(=O)(=O)Cc1nc(-c2ccc(Cl)c(Cl)c2)cs1,> 100,,> 100
O=C(CCCSc1nc2ccccc2s1)NCc1ccc2c(c1)OCO2,> 100,> 100 µM (inactive),43.8
CCc1cc(C(=O)N2CCCC(C(=O)c3cccc4ccccc34)C2)n(C)n1 (configuration not stated),,> 100 µM (inactive),
COc1cc2cc(C(=O)Nc3ccc4c(c3)OCCO4)[nH]c2cc1OC,,> 100 µM (inactive),> 100
CCCc1c(C(=O)Nc2ccc(OC)cc2)cnn1-c1ccccc1,,> 100 µM (inactive),> 100
COc1ccc(-c2csc(NC(=O)c3ccccc3S(C)(=O)=O)n2)cc1,,,> 100
CCOC(=O)c1ccc(NC(=O)c2ccc(OC(C)C)c(OC)c2)cc1,,,> 100
Nc1[nH]c(C(=O)c2ccccc2)c(-c2ccc(Cl)cc2)c1C(=O)NCCc1c[nH]c2ccccc12,,> 100 µM (inactive),> 100
CCOc1ncccc1C(=O)OCC(=O)NCCCc1ccccc1,,> 100 µM (inactive),
O=C(NCc1ccccc1)c1ccc(-c2cn[nH]c2)c2ccoc12,> 100,> 100 µM (inactive),
Cc1nn(-c2cccc(Cl)c2)nc1C(=O)O,,> 100 µM (inactive),
C[C@@H]1CCCCO[C@H](CN(C)C(=O)CCCN(C)C)[C@H](C)CN([C@@H](C)CO)C(=O)c2cc(NC(=O)Nc3cccc4ccccc34)ccc2O1,,,> 100
CN(C)CCCN(C(=O)CCSc1ccccc1)c1nc2cc3c(cc2s1)OCO3,,> 100 µM (inactive),
COc1ccccc1CNC(=O)CN1C(=O)NC(c2ccccc2)(c2ccccc2)C1=O,,> 100 µM (inactive),> 100
Nc1nc2ccccc2n1CCOc1ccc(F)cc1,< 0.6,> 100 µM (inactive),
CS(=O)(=O)N1CC2CCCN2c2ccc(C(F)(F)F)cc21 (configuration not stated),> 100,> 100 µM (inactive),> 100
Oc1c(Br)cc(Br)cc1Br,,> 100 µM (inactive),
Cc1cc(C(=O)OCC(=O)Nc2cccc(S(N)(=O)=O)c2)c2ccccc2n1,,> 100 µM (inactive),> 100
O=S1(=O)c2ccc(Br)cc2OCCC2CCCCN21 (configuration not stated),,> 100 µM (inactive),> 100
Cc1ccc(NC(=O)c2ccc([N+](=O)[O-])o2)c(C)c1,,> 100 µM (inactive),
CN(C(=O)COc1ccccc1C(=O)NCCOc1ccccc1)c1ccccc1,44.2,> 100 µM (inactive),
O=C(c1ccc(N2CCCCC2)c([N+](=O)[O-])c1)N1CCN(c2ccccn2)CC1,,> 100 µM (inactive),> 100
Cc1ccc(S(=O)(=O)Nc2ccccc2CNc2cccc(C)n2)cc1,,> 100 µM (inactive),
CC1CCCN(c2ccc(C(=O)NCCc3ccccc3)cn2)C1 (configuration not stated),,> 100 µM (inactive),> 100
O=C(CCNc1cccc(Cl)c1)c1cccs1,,> 100 µM (inactive),
